{
  "source": "patent EP1743628A1",
  "about": "“Cosmetic composition containing red algae extract comprising a combination of floridoside and isethionic acid” (Simer, priority 2005, dated 2007)",
  "key": {"[1]": {"test_system": "transglutaminase kératinocytaire (TGk)", "test": "Keratinocyte transglutaminase (TGk) activity in NHEK cultures (differentiation)"}, "[2]": {"test_system": "stratum corneum (SC) délipidisé", "test": "Water retention (water-holding capacity, WHC) of delipidised stratum corneum after immersion in aqueous test solutions", "set-up": "species or system porc", "conditions": "8 h immersion, après 6 heures à 25°C et 40% RH", "procedure": "On étudie l'hydratation du stratum corneum (SC) délipidisé et traité par différentes solutions aqueuses.\nLe but de cette étude est de montrer si l'application cutanée d'une solution aqueuse d'extrait de mastocarpus (10% de matière sèche), de floridoside pur à 3,8%, d'acide iséthionique pur à 1,9%, d'un mélange de floridoside pur à 3,8% et d'acide iséthionique pur à 1,9%, modifie significativement l'état d'hydratation du SC délipidisé puis conservé dans une enceinte à 25°C et à 40 % d'humidité relative (RH).\nDans cette étude, des échantillons de SC, isolés de l'épiderme de morceaux d'oreilles de porc par un traitement à la trypsine (1% dans un tampon phosphate; pH=7,4) puis délipidisés par un solvant (acétone par exemple), ont été immergés pendant 8 heures dans une solution aqueuse d'extrait de mastocarpus 10%, de floridoside pur à 3,8%, d'acide iséthionique pur à 1,9%, d'un mélange de floridoside pur à 3,8% et d'acide iséthionique pur à 1,9%, (3 échantillons de SC par produits). Trois échantillons de SC délipidisé ont été traités par de l'eau ultra pure (contrôle, 18 MΩ), pendant 8 heures. Après traitement, ces échantillons ont été pesés puis placés dans une étuve maintenue à 25°C et à 40% RH. La masse des échantillons de SC traités par chacune des solutions a été déterminée après 1h; 2h; 3h; 4h; 5h et 6h de conservation à 25°C et à 40% RH. […]"}, "[3]": {"test_system": "fibres musculaires en coculture avec des explants de moelle épinière", "format": "cell-based, cellules musculaires humaines; embryons de rat Wistar"}, "[4]": {"conditions": "acide rétinoïque, concentration not printed in this table (10^-7M per Tableau 4)"}},
  "data": [
    {"smiles": "CC1=C(/C=C/C(C)=C/C=C/C(C)=C/C(=O)O)C(C)(C)CCC1", "note": "[Acide rétinoïque]", "values": [
      {"measurement": "% témoin (activité TGk)", "setting": "[1]; 10^-7M", "result": 52, "unit": "%"},
      {"measurement": "Activité TGk (cpm)", "setting": "[1]; 10^-7M", "result": 447, "unit": "cpm"},
      {"measurement": "réduction de l'activité TGk", "setting": "[1]; 10^-7M", "result": 46, "unit": "%"},
      {"measurement": "% (activité TGk/µg de protéines, par rapport au témoin)", "setting": "[1]; [4]", "result": 67, "unit": "%"},
      {"measurement": "activité/µg (activité TGk par rapport à la quantité de protéines)", "setting": "[1]; [4]", "result": 131}
    ]},
    {"smiles": "[Ca+2].[Cl-].[Cl-]", "note": "[Chlorure de calcium]", "values": [
      {"measurement": "% (activité TGk/µg de protéines, par rapport au témoin)", "setting": "[1]; 1,5 mM", "result": 317, "unit": "%"},
      {"measurement": "% témoin (activité TGk)", "setting": "[1]; 1,5 mM", "result": 394, "unit": "%"},
      {"measurement": "activité/µg (activité TGk par rapport à la quantité de protéines)", "setting": "[1]; 1,5 mM", "result": 626},
      {"measurement": "Activité TGk (cpm)", "setting": "[1]; 1,5mM, sans calcium dans le milieu", "result": 3408, "unit": "cpm"},
      {"measurement": "activité transglutaminase plus forte en milieu calcium qu'en milieu sans calcium", "setting": "[1]; chlorure de calcium 1,5 mM", "result": "~4", "unit": "fois"}
    ]},
    {"smiles": "CC1=C(/C=C/C(C)=C/C=C/C(C)=C/CO)C(C)(C)CCC1", "note": "[Rétinol]", "values": [
      {"measurement": "% (activité TGk/µg de protéines, par rapport au témoin)", "setting": "[1]; 10^-6 M", "result": 72, "unit": "%"},
      {"measurement": "% témoin (activité TGk)", "setting": "[1]; 10^-6 M", "result": 54, "unit": "%"},
      {"measurement": "Activité TGk (cpm)", "setting": "[1]; 10^-6 M", "result": 465, "unit": "cpm"},
      {"measurement": "activité/µg (activité TGk par rapport à la quantité de protéines)", "setting": "[1]; 10^-6 M", "result": 142},
      {"measurement": "réduction de l'activité TGk", "setting": "[1]; 10^-6 M", "result": 48, "unit": "%"}
    ]},
    {"smiles": "O=S(=O)(O)CCO", "note": "[acide iséthionique]", "values": [
      {"measurement": "état de déshydratation des échantillons de SC", "setting": "[2]; acide iséthionique 1,9%, vs contrôle", "result": "moins déshydratés que les échantillons contrôles"}
    ]},
    {"smiles": "CCCC(C)(COC(N)=O)COC(=O)NC(C)C", "note": "(centres unmarked) [carisoprodol]", "values": [
      {"measurement": "fréquence de contraction des 3 fibres musculaires sélectionnées", "setting": "[3]; 10^-3 M (0,03%), après 1 minute et 2 heures d'incubation", "result": "a bloqué"},
      {"measurement": "activité contractile après recharge en glucose", "setting": "[3]; 10^-3 M, 48 heures d'incubation, apport de glucose", "result": "n'a pas permis aux fibres musculaires de reprendre une activité contractile"},
      {"measurement": "pourcentage moyen de contraction des trois fibres (récupération)", "setting": "[3]; carisoprodol 10^-3 M, après changement de milieu et 2 heures sans produit, relative to initial frequency", "result": 111, "unit": "%"}
    ]},
    {"smiles": "OCC(CO)O[C@H]1O[C@H](CO)[C@H](O)[C@H](O)[C@H]1O", "note": "[floridoside, 2-O-glycérol-α-D-galactopyranoside]", "values": [
      {"measurement": "état de déshydratation des échantillons de SC", "setting": "[2]; floridoside 3,8%, vs eau", "result": "n'était pas significativement différent"}
    ]}
  ]
}
